From article PMC12687421, “Characterisation of an allosteric site in PLCγ enzymes and implications for development of their specific inhibitors” (Biochemical Journal, 2025)

Assays:
[1] = biological target: T1, PLCγ1^wt (Homo sapiens, UniProt P19174, I813T); test: Microscale thermophoresis (MST) binding; details: one-site binding model
T1 construct: specific activities of PLCγ1^wt and PLCγ2^wt full-length proteins; made in house; host or cells: Escherichia coli T7 Express lysY/Iq
T1 sequence (P19174 1-1291 isoform P19174-2 I813T): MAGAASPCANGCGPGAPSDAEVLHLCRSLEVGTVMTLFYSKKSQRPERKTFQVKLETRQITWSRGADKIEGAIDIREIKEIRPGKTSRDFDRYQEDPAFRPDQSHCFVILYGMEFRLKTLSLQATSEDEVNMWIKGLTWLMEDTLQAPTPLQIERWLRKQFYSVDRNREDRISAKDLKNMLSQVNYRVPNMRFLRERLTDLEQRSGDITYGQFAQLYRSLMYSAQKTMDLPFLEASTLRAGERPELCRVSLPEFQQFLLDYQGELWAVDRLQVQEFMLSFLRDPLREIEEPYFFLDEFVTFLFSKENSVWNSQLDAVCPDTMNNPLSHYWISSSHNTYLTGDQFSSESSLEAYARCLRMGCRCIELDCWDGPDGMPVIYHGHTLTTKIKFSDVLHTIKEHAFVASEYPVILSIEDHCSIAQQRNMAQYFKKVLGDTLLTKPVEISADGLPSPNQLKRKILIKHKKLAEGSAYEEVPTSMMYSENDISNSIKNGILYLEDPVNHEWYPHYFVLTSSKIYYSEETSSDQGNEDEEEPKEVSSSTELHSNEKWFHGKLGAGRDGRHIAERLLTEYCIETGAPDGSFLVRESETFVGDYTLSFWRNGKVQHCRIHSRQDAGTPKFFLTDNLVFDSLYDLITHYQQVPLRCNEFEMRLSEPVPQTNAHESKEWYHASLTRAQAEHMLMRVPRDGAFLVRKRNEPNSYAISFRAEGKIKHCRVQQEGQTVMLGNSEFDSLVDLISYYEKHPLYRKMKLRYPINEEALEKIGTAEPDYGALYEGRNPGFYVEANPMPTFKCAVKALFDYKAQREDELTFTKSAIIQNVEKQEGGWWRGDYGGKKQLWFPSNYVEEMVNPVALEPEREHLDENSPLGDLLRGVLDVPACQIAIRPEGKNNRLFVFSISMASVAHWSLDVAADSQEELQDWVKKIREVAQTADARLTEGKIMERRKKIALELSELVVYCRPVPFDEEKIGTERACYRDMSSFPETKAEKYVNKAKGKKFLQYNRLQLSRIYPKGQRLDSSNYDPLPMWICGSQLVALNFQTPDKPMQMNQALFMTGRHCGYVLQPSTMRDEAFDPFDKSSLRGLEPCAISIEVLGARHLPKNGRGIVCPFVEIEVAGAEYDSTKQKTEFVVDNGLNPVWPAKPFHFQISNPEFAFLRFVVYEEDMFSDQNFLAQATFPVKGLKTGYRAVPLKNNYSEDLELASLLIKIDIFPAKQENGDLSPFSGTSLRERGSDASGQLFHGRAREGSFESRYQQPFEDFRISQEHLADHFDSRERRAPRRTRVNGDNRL
Experimental: Proteins were diluted to 200 nM in MST buffer [50 mM Hepes.KOH, 70 mM KCl, 5% (v/v) glycerol, 0.05% (v/v) Tween-20, 2 mM DTT (pH 7.5)] and subsequently labelled by adding an equal volume of 100 nM 2nd generation RED-Tris-NTA labelling dye and incubating for 30 minutes. […] An equal volume of labelled protein was added to each ligand concentration and the mixture taken up into a standard MST capillary. Samples were measured in a Monolith NT.115 pico instrument (Nanotemper) using the Nano-RED channel. Excitation power was set to 5% and MST power set to high. All experiments were performed at 25°C. All data were analysed using the manufacturer’s MO.Control software and repeated at least three times with representative experiments shown.

[2] = biological target: T2, PLCδ1 (Homo sapiens, UniProt P51178); test: PLC activity assay 1 (A1), PLCδ1; assay type: biochemical; details: substrate in solution or in lipid vesicles (Figure 3C, D); except small changes at very high concentration
T2 construct: made in house; host or cells: Escherichia coli T7 Express lysY/Iq
T2 sequence (P51178 1-756): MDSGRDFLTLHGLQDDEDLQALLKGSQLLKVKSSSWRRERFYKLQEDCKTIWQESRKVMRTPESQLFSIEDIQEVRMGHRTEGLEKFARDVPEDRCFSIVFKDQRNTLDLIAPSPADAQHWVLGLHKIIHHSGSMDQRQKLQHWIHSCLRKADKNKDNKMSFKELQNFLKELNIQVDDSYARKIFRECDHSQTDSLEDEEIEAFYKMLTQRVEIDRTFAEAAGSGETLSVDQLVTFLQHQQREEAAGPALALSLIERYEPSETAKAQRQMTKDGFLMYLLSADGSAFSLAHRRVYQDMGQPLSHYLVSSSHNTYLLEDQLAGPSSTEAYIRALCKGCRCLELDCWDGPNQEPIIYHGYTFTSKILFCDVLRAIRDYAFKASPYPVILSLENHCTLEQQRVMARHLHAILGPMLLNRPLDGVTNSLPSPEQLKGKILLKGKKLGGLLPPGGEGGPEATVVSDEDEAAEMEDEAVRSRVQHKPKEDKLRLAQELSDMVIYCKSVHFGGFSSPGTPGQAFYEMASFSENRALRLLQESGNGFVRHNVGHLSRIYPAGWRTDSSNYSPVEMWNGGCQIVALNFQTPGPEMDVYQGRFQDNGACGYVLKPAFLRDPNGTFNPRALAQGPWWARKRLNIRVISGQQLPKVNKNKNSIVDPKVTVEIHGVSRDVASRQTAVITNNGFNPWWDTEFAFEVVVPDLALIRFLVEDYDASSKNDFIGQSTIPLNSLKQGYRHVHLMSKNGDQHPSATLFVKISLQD
Experimental: (§1) The effect of nucleotide inhibition on PLC activity was measured using either a membrane-based assay with the fluorescent substrate (XY-69) incorporated into liposomes or using a small soluble substrate, Aldol 518 myo-inositol-1-phosphate (Aldol). Both methods utilised the same PLC assay buffer [20 mM Hepes-KOH, 70 mM KCl, 3 mM EGTA, 2.97 mM CaCl2, 2 mM TCEP and fatty acid-free bovine serum albumin (FAF-BSA; 50 μg/ml) (pH 7.5)]. Both assays were performed in low volume black 384-well plates (Greiner Bio-One), were composed of a final assay volume of 20 μl and were monitored in a Clariostar plate reader (BMG Labtech). The Aldol assay consisted of 4 μl of a serial dilution of ATP/ADP in assay buffer, 8 μl of PLC protein (concentration varied between PLC variants), and 8 μl of Aldol 518 myo-inositol-1-phosphate (final concentration in assay, 50 μM). […]
(§2) The XY-69 assay contained 4 μl of a serial dilution of ATP/ADP in assay buffer, 4 μl of PLC protein (concentration varied between PLC variants), and 12 μl of XY69 liposomes (final concentration in assay 1.2 mg/ml). A CLARIOstar plate reader (BMG Labtech) was used to measure the production of the fluorescent product. […] The initial linear rate of product generation was calculated and converted to a % inhibition when compared with the rate of PLC activity in the absence of nucleotide. […]

[3] = biological target: T3, PLCβ2 (Homo sapiens, UniProt Q00722); test: PLC activity assay 1 (A1), PLCβ2; assay type: biochemical; details: substrate in solution or in lipid vesicles (Figure 3C, D); except small changes at very high concentration
T3 construct: made in house; host or cells: Escherichia coli T7 Express lysY/Iq
T3 sequence (Q00722 whole entry, species assumed): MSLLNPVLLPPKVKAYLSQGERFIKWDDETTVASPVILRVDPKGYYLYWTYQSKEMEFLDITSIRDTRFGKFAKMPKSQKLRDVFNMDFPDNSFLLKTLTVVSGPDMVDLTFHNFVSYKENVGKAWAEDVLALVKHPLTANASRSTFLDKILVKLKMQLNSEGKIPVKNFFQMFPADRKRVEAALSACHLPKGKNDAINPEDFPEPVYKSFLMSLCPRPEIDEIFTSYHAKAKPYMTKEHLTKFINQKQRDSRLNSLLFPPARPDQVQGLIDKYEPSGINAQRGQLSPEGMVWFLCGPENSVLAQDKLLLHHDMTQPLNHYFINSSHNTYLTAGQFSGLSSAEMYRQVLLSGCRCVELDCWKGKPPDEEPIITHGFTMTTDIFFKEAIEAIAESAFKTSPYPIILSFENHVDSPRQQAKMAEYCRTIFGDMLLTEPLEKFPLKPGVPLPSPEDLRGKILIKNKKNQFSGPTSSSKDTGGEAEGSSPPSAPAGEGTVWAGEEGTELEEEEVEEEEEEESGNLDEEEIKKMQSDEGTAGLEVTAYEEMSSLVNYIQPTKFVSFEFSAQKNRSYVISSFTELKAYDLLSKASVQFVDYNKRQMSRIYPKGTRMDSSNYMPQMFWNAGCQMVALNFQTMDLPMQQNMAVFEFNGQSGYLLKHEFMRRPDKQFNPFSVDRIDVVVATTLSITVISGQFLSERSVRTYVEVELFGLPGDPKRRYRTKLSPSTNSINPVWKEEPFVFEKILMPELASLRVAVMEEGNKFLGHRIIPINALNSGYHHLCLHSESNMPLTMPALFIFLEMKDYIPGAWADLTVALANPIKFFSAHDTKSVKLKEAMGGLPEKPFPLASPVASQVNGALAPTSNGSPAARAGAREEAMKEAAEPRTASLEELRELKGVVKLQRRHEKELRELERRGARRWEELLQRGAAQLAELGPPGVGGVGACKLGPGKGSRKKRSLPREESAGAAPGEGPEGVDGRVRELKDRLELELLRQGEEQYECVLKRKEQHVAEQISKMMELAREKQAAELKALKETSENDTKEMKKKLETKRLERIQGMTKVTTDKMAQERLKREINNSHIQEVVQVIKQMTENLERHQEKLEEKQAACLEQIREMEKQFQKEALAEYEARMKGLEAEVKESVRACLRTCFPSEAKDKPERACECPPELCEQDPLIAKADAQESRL
Experimental: as §1, §2

| SMILES | Kd [1] | effect on PLC activity of PLCδ1 [2] | effect on PLC activity of PLCβ2 [3] |
| --- | --- | --- | --- |
| Nc1ncnc2c1ncn2[C@@H]1O[C@H](COP(=O)(O)OP(=O)(O)O)[C@@H](O)[C@H]1O [ADP] | 30 to 50 µM | not affected | not affected |
| Nc1ncnc2c1ncn2[C@@H]1O[C@H](COP(=O)(O)OP(=O)(O)OP(=O)(O)O)[C@@H](O)[C@H]1O [ATP] | 30 to 50 µM | not affected | not affected |
